# Test system: human mixed lymphocyte reaction (MLR)
# Test: human mixed lymphocyte reaction (MLR) assay, immunosuppressant activity
# Type: cell-based
# Details: Table 1
# Method: The immunosuppressant activity of the compounds of the present invention was determined using the human mixed lymphocyte reaction (MLR) assay described by Kino, T. et al. in Transplantation Proceedings, XIX(5):36-39,Suppl. 6 (1987).
row,Structure (SMILES),IC50 [pM]
1,CCOC(=O)COC1CCC(C=C(C)C2OC(=O)C3CCCCN3C(=O)C(=O)C3(O)OC(C(OC)CC(C)CC(C)=CC(CC)C(=O)CC(O)C2C)C(OC)CC3C)CC1OC (centres unmarked) [Example 1],900
2,CCC1C=C(C)CC(C)CC(OC)C2OC(O)(C(=O)C(=O)N3CCCCC3C(=O)OC(C(C)=CC3CCC(OCC(=O)OCc4ccccc4)C(OC)C3)C(C)C(O)CC1=O)C(C)CC2OC (centres unmarked) [Example 2],7600
3,CCC1C=C(C)CC(C)CC(OC)C2OC(O)(C(=O)C(=O)N3CCCCC3C(=O)OC(C(C)=CC3CCC(OCC(=O)O)C(OC)C3)C(C)C(O)CC1=O)C(C)CC2OC (centres unmarked) [Example 3],140000
4,CCC1C=C(C)CC(C)CC(OC)C2OC(O)(C(=O)C(=O)N3CCCCC3C(=O)OC(C(C)=CC3CCC(OCC(N)=O)C(OC)C3)C(C)C(O)CC1=O)C(C)CC2OC (centres unmarked) [Example 6],100
5,CCC1C=C(C)CC(C)CC(OC)C2OC(O)(C(=O)C(=O)N3CCCCC3C(=O)OC(C(C)=CC3CCC(OCC(=O)NCCCO)C(OC)C3)C(C)C(O)CC1=O)C(C)CC2OC (centres unmarked) [Example 31],1100
6,CCC1C=C(C)CC(C)CC(OC)C2OC(O)(C(=O)C(=O)N3CCCCC3C(=O)OC(C(C)=CC3CCC(OCC(=O)NN4CCOCC4)C(OC)C3)C(C)C(O)CC1=O)C(C)CC2OC (centres unmarked) [Example 51],300
7,CCC1C=C(C)CC(C)CC(OC)C2OC(O)(C(=O)C(=O)N3CCCCC3C(=O)OC(C(C)=CC3CCC(OCC(=O)Nc4ccc(F)cc4)C(OC)C3)C(C)C(O)CC1=O)C(C)CC2OC (centres unmarked) [Example 54],20
8,CCC1C=C(C)CC(C)CC(OC)C2OC(O)(C(=O)C(=O)N3CCCCC3C(=O)OC(C(C)=CC3CCC(OCC(=O)Nc4cccnc4)C(OC)C3)C(C)C(O)CC1=O)C(C)CC2OC (centres unmarked) [Example 57],100
9,CCC1C=C(C)CC(C)CC(OC)C2OC(O)(C(=O)C(=O)N3CCCCC3C(=O)OC(C(C)=CC3CCC(OCC(=O)Nc4ccncc4)C(OC)C3)C(C)C(O)CC1=O)C(C)CC2OC (centres unmarked) [Example 58],150
10,CCC1C=C(C)CC(C)CC(OC)C2OC(O)(C(=O)C(=O)N3CCCCC3C(=O)OC(C(C)=CC3CCC(OCC(=O)Nc4cccc(O)c4)C(OC)C3)C(C)C(O)CC1=O)C(C)CC2OC (centres unmarked) [Example 73],40
11,CCC1C=C(C)CC(C)CC(OC)C2OC(O)(C(=O)C(=O)N3CCCCC3C(=O)OC(C(C)=CC3CCC(OCC(=O)N(C)CCc4ccccc4)C(OC)C3)C(C)C(O)CC1=O)C(C)CC2OC (centres unmarked) [Example 83],400
12,CCC1C=C(C)CC(C)CC(OC)C2OC(O)(C(=O)C(=O)N3CCCCC3C(=O)OC(C(C)=CC3CCC(OCC(=O)NCCN(C)C)C(OC)C3)C(C)C(O)CC1=O)C(C)CC2OC (centres unmarked) [Example 88],100
13,CCC1C=C(C)CC(C)CC(OC)C2OC(O)(C(=O)C(=O)N3CCCCC3C(=O)OC(C(C)=CC3CCC(OCC(=O)NCCCN(C)C)C(OC)C3)C(C)C(O)CC1=O)C(C)CC2OC (centres unmarked) [Example 89],500

# Further compounds by falling IC50, results first:
row,IC50 [pM],Structure (SMILES)
1,173000,CCC1C=C(C)CC(C)CC(OC)C2OC(O)(C(=O)C(=O)N3CCCCC3C(=O)OC(C(C)=CC3CCC(OCC(=O)NCC(=O)O)C(OC)C3)C(C)C(O)CC1=O)C(C)CC2OC (centres unmarked) [Example 39]
2,1800,CCC1C=C(C)CC(C)CC(OC)C2OC(O)(C(=O)C(=O)N3CCCCC3C(=O)OC(C(C)=CC3CCC(OCNC(=O)N4CCOCC4)C(OC)C3)C(C)C(O)CC1=O)C(C)CC2OC (centres unmarked) [Example 111]
3,1100,CCC1C=C(C)CC(C)CC(OC)C2OC(O)(C(=O)C(=O)N3CCCCC3C(=O)OC(C(C)=CC3CCC(OCC(=O)NCCCN4CCOCC4)C(OC)C3)C(C)C(O)CC1=O)C(C)CC2OC (centres unmarked) [Example 87]
4,700,CCC1C=C(C)CC(C)CC(OC)C2OC(O)(C(=O)C(=O)N3CCCCC3C(=O)OC(C(C)=CC3CCC(OCC(=O)N4CCOCC4)C(OC)C3)C(C)C(O)CC1=O)C(C)CC2OC (centres unmarked) [Example 29]
5,500,CCC1C=C(C)CC(C)CC(OC)C2OC(O)(C(=O)C(=O)N3CCCCC3C(=O)OC(C(C)=CC3CCC(OCC(=O)NCc4ccccc4)C(OC)C3)C(C)C(O)CC1=O)C(C)CC2OC (centres unmarked) [Example 4]
6,500,CCC1C=C(C)CC(C)CC(OC)C2OC(O)(C(=O)C(=O)N3CCCCC3C(=O)OC(C(C)=CC3CCC(OCC(=O)Nc4ccccc4)C(OC)C3)C(C)C(O)CC1=O)C(C)CC2OC (centres unmarked) [Example 85]
7,300,CCC1C=C(C)CC(C)CC(OC)C2OC(O)(C(=O)C(=O)N3CCCCC3C(=O)OC(C(C)=CC3CCC(OCC(=O)NCCc4ccccc4)C(OC)C3)C(C)C(O)CC1=O)C(C)CC2OC (centres unmarked) [Example 82]
8,200,CCC1C=C(C)CC(C)CC(OC)C2OC(O)(C(=O)C(=O)N3CCCCC3C(=O)OC(C(C)=CC3CCC(OCC(=O)Nc4ccc(C(F)(F)F)cc4)C(OC)C3)C(C)C(O)CC1=O)C(C)CC2OC (centres unmarked) [Example 53]
9,100,CCC1C=C(C)CC(C)CC(OC)C2OC(O)(C(=O)C(=O)N3CCCCC3C(=O)OC(C(C)=CC3CCC(OCC(=O)NNC(=O)c4ccncc4)C(OC)C3)C(C)C(O)CC1=O)C(C)CC2OC (centres unmarked) [Example 71]
10,100,CCC1C=C(C)CC(C)CC(OC)C2OC(O)(C(=O)C(=O)N3CCCCC3C(=O)OC(C(C)=CC3CCC(OCNC(=O)Nc4ccccc4)C(OC)C3)C(C)C(O)CC1=O)C(C)CC2OC (centres unmarked) [Example 112]
11,80,CCC1C=C(C)CC(C)CC(OC)C2OC(O)(C(=O)C(=O)N3CCCCC3C(=O)OC(C(C)=CC3CCC(OCC(=O)Nc4cccc(F)c4)C(OC)C3)C(C)C(O)CC1=O)C(C)CC2OC (centres unmarked) [Example 72]
12,60,CCC1C=C(C)CC(C)CC(OC)C2OC(O)(C(=O)C(=O)N3CCCCC3C(=O)OC(C(C)=CC3CCC(OCC(=O)N4CCN(C)CC4)C(OC)C3)C(C)C(O)CC1=O)C(C)CC2OC (centres unmarked) [Example 74]
13,50,CCC1C=C(C)CC(C)CC(OC)C2OC(O)(C(=O)C(=O)N3CCCCC3C(=O)OC(C(C)=CC3CCC(OCC(=O)Nc4ccccn4)C(OC)C3)C(C)C(O)CC1=O)C(C)CC2OC (centres unmarked) [Example 59]
